Peptide text beside a SMILES is read from it. * marks the point of attachment. X1 = C=CC[C@H](N*)B1OC2CC3CC(C3(C)C)[C@@]2(C)O1
Target: T1, NS3 (Hepatitis C virus, UniProt A3EZJ3)
Assay: Inhibitory concentration against HCV NS3 protease.
Set-up: species or system Hepacivirus hominis

T1 sequence (A3EZJ3 whole entry): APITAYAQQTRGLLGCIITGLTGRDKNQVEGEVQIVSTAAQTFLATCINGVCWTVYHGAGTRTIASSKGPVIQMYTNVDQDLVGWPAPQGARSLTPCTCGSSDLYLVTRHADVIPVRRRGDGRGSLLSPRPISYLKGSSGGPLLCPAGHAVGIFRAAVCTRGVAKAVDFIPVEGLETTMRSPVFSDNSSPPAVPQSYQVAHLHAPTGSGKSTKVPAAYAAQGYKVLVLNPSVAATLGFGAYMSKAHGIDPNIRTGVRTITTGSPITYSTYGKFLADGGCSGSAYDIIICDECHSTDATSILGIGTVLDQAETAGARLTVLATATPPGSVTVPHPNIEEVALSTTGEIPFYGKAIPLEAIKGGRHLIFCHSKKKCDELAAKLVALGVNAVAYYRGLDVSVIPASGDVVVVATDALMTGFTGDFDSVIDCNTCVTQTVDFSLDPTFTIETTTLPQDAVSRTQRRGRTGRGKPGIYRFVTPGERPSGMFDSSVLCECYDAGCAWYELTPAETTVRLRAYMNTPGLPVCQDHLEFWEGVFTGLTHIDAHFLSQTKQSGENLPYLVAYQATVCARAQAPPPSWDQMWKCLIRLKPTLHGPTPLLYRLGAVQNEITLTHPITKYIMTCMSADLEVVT

SMILES	IC50 [nM]
C=CC[C@H](NC(=O)[C@@H]1CCc2c(Cl)nc(NCc3cccc(C(F)(F)F)c3)c(=O)n21)B1OC2CC3CC(C3(C)C)[C@@]2(C)O1 (stereo not given in full)	4600
C=CC[C@H](NC(=O)[C@@H]1C[C@@H](Cc2ccccc2)c2c(Cl)nc(NCc3cccc(C(F)(F)F)c3)c(=O)n21)B1OC2CC3CC(C3(C)C)[C@@]2(C)O1 (stereo not given in full)	260
C=CC[C@H](NC(=O)[C@@H]1C[C@@H](Cc2ccc(-c3ccccc3)cc2)c2c(Cl)nc(NCc3cccc(C(F)(F)F)c3)c(=O)n21)B1OC2CC3CC(C3(C)C)[C@@]2(C)O1 (stereo not given in full)	60
C=CC[C@H](NC(=O)[C@@H]1C[C@@H](Cc2ccc(OC)cc2)c2c(Cl)nc(NCc3cccc(C(F)(F)F)c3)c(=O)n21)B1OC2CC3CC(C3(C)C)[C@@]2(C)O1 (stereo not given in full)	50
C=CC[C@H](NC(=O)[C@@H]1C[C@@H](CCCc2cccc3ccccc23)c2c(Cl)nc(NCc3ccc(O)c(O)c3)c(=O)n21)B1OC2CC3CC(C3(C)C)[C@@]2(C)O1 (stereo not given in full)	110
C=CC[C@H](NC(=O)[C@@H]1C[C@@H](CCCc2ccc3ccccc3c2)c2c(Cl)nc(NCc3ccccc3)c(=O)n21)B1OC2CC3CC(C3(C)C)[C@@]2(C)O1 (stereo not given in full)	240
C=CC[C@H](NC(=O)[C@@H]1C[C@@H](CCCc2ccc3ccccc3c2)c2c(Cl)nc(NCC3CCCCC3)c(=O)n21)B1OC2CC3CC(C3(C)C)[C@@]2(C)O1 (stereo not given in full)	200
C=CC[C@H](NC(=O)[C@@H]1C[C@H](CCCc2ccccc2)c2c(Cl)nc(NCc3cccc(C(F)(F)F)c3)c(=O)n21)B1OC2CC3CC(C3(C)C)[C@@]2(C)O1 (stereo not given in full)	2000
C=CC[C@H](NC(=O)[C@@H]1C[C@@H](CCCc2ccc3ccccc3c2)c2c(Cl)nc(N)c(=O)n21)B1OC2CC3CC(C3(C)C)[C@@]2(C)O1 (stereo not given in full)	190
CC[C@H](NC(=O)[C@@H]1C[C@@H](CCCc2ccc3ccccc3c2)c2c(Cl)nc(NCc3cccc(C(F)(F)F)c3)c(=O)n21)B1OC2CC3CC(C3(C)C)[C@@]2(C)O1 (stereo not given in full)	20
C=CC[C@H](NC(=O)[C@@H]1C[C@@H](CCCc2ccc3ccccc3c2)c2c(Cl)nc(NCc3cccc(C(F)(F)F)c3)c(=O)n21)B1OC2CC3CC(C3(C)C)[C@@]2(C)O1 (stereo not given in full)	20
C=CC[C@H](NC(=O)[C@@H]1C[C@@H](CCCc2ccc3ccccc3c2)c2c(Cl)nc(NCc3ccccn3)c(=O)n21)B1OC2CC3CC(C3(C)C)[C@@]2(C)O1 (stereo not given in full)	90
C=CC[C@H](NC(=O)[C@@H]1C[C@@H](Cc2cccc(C)c2)c2c(Cl)nc(NCc3cccc(C(F)(F)F)c3)c(=O)n21)B1OC2CC3CC(C3(C)C)[C@@]2(C)O1 (stereo not given in full)	400
C=CC[C@H](NC(=O)[C@@H]1C[C@H](CCCc2ccc3ccccc3c2)c2c(Cl)nc(NCc3cccc(C(F)(F)F)c3)c(=O)n21)B1OC2CC3CC(C3(C)C)[C@@]2(C)O1 (stereo not given in full)	510
C=CC[C@H](NC(=O)[C@@H]1C[C@@H](CCCc2ccc3ccccc3c2)c2c(Cl)nc(NCCCC)c(=O)n21)B1OC2CC3CC(C3(C)C)[C@@]2(C)O1 (stereo not given in full)	160
C=CC[C@H](NC(=O)[C@@H]1C[C@@H](Cc2ccc(C)cc2)c2c(Cl)nc(NCc3cccc(C(F)(F)F)c3)c(=O)n21)B1OC2CC3CC(C3(C)C)[C@@]2(C)O1 (stereo not given in full)	60
C=CC[C@H](NC(=O)[C@@H]1C[C@@H](CCCc2ccccc2)c2c(Cl)nc(NCc3cccc(C(F)(F)F)c3)c(=O)n21)B1OC2CC3CC(C3(C)C)[C@@]2(C)O1 (stereo not given in full)	60
C=CC[C@H](NC(=O)[C@@H]1C[C@@H](CCCc2cccc3ccccc23)c2c(Cl)nc(NCCC)c(=O)n21)B1OC2CC3CC(C3(C)C)[C@@]2(C)O1 (stereo not given in full)	180
C=CC[C@H](NC(=O)[C@@H]1C[C@@H](CCCc2cccc3ccccc23)c2c(Cl)nc(NCC(C)C)c(=O)n21)B1OC2CC3CC(C3(C)C)[C@@]2(C)O1 (stereo not given in full)	170
C=CC[C@H](NC(=O)[C@@H]1C[C@@H](Cc2cccc(OC)c2)c2c(Cl)nc(NCc3cccc(C(F)(F)F)c3)c(=O)n21)B1OC2CC3CC(C3(C)C)[C@@]2(C)O1 (stereo not given in full)	260
C=CC[C@H](NC(=O)[C@@H]1C[C@@H](CCCc2ccc3ccccc3c2)c2c(Cl)nc(NCc3cccc(OC)c3)c(=O)n21)B1OC2CC3CC(C3(C)C)[C@@]2(C)O1 (stereo not given in full)	60
C=CC[C@H](NC(=O)[C@@H]1C[C@@H](CCCc2ccc3ccccc3c2)c2c(Cl)nc(NC)c(=O)n21)B1OC2CC3CC(C3(C)C)[C@@]2(C)O1 (stereo not given in full)	320
C=CC[C@H](NC(=O)[C@@H]1C[C@@H](CCCc2cccc3ccccc23)c2c(Cl)nc(NCc3cccc(F)c3)c(=O)n21)B1OC2CC3CC(C3(C)C)[C@@]2(C)O1 (stereo not given in full)	60
C=CC[C@H](NC(=O)[C@@H]1C[C@@H](CCCc2cccc3ccccc23)c2c(Cl)nc(NCC)c(=O)n21)B1OC2CC3CC(C3(C)C)[C@@]2(C)O1 (stereo not given in full)	230

Target: T1, NS3
Assay: Inhibitory concentration against HCV NS3 protease was determined
Set-up: species or system Hepacivirus hominis

SMILES	Ki [nM]
C=CC[C@H](NC(=O)[C@@H]1CCCN1C(=O)[C@@H](NC(=O)[C@@H](NC(=O)[C@H](CCC(=O)O)NC(=O)[C@H](CC(=O)O)NC(C)=O)C(C)C)C(C)C)B1OC2CC3CC(C3(C)C)[C@@]2(C)O1 (stereo not given in full) (Ac-DEVVP-X1)	4

Reference: ChEMBL document CHEMBL1136658, “Design and synthesis of potent, non-peptide inhibitors of HCV NS3 protease” (Bioorg Med Chem Lett, 2003)
